In ChEMBL document CHEMBL3112495, “Diphenylpyridylethanamine (DPPE)-based aminoheterocycles as cholesteryl ester transfer protein inhibitors” (Bioorg Med Chem Lett, 2014):

Test system: not listed separately
Assay: Metabolic stability of the compound in rat liver microsomes assessed as compound remaining after 10 mins
Format: ADME
Settings: read-out: Stability

| Structure (SMILES) | remaining at 10 min [%] |
| --- | --- |
| Fc1cc(OC(F)(F)C(F)F)cc([C@@](Cc2ccccc2)(Nc2nc3c(F)cc(F)cc3[nH]2)c2ccc(Cl)cn2)c1 | 100 |
| Fc1cc(OC(F)(F)C(F)F)cc([C@@](Cc2ccccc2)(Nc2nc3cc(F)ccc3[nH]2)c2ccc(Cl)cn2)c1 | 95 |
| Cc1sc(N[C@](Cc2ccccc2)(c2cc(F)cc(OC(F)(F)C(F)F)c2)c2ccc(Cl)cn2)nc1C(F)(F)F | 55 |
| Fc1cc(OC(F)(F)C(F)F)cc([C@@](Cc2ccccc2)(Nc2nc(C(F)(F)F)cs2)c2ccc(Cl)cn2)c1 | 83 |

Test system: not listed separately
Assay: Metabolic stability of the compound in mouse liver microsomes assessed as compound remaining after 10 mins
Format: ADME, Microsome
Settings: read-out: Stability

| Structure (SMILES) | remaining at 10 min [%] |
| --- | --- |
| Fc1cc(OC(F)(F)C(F)F)cc([C@@](Cc2ccccc2)(Nc2nc3c(F)cc(F)cc3[nH]2)c2ccc(Cl)cn2)c1 | 72 |
| Fc1cc(OC(F)(F)C(F)F)cc([C@@](Cc2ccccc2)(Nc2nc3cc(F)ccc3[nH]2)c2ccc(Cl)cn2)c1 | 62 |
| Cc1sc(N[C@](Cc2ccccc2)(c2cc(F)cc(OC(F)(F)C(F)F)c2)c2ccc(Cl)cn2)nc1C(F)(F)F | 59 |
| Fc1cc(OC(F)(F)C(F)F)cc([C@@](Cc2ccccc2)(Nc2nc(C(F)(F)F)cs2)c2ccc(Cl)cn2)c1 | 78 |

Test system: not listed separately
Assay: Metabolic stability of the compound in human liver microsomes assessed as compound remaining after 10 mins
Format: ADME
Settings: read-out: Stability

| Structure (SMILES) | remaining at 10 min [%] |
| --- | --- |
| Fc1cc(OC(F)(F)C(F)F)cc([C@@](Cc2ccccc2)(Nc2nc3c(F)cc(F)cc3[nH]2)c2ccc(Cl)cn2)c1 | 68 |
| Fc1cc(OC(F)(F)C(F)F)cc([C@@](Cc2ccccc2)(Nc2nc3cc(F)ccc3[nH]2)c2ccc(Cl)cn2)c1 | 56 |
| Cc1sc(N[C@](Cc2ccccc2)(c2cc(F)cc(OC(F)(F)C(F)F)c2)c2ccc(Cl)cn2)nc1C(F)(F)F | 82 |
| Fc1cc(OC(F)(F)C(F)F)cc([C@@](Cc2ccccc2)(Nc2nc(C(F)(F)F)cs2)c2ccc(Cl)cn2)c1 | 98 |

Molecular target: T1, Cholesteryl ester transfer protein (Homo sapiens, UniProt P11597)
T1 sequence (P11597 whole entry): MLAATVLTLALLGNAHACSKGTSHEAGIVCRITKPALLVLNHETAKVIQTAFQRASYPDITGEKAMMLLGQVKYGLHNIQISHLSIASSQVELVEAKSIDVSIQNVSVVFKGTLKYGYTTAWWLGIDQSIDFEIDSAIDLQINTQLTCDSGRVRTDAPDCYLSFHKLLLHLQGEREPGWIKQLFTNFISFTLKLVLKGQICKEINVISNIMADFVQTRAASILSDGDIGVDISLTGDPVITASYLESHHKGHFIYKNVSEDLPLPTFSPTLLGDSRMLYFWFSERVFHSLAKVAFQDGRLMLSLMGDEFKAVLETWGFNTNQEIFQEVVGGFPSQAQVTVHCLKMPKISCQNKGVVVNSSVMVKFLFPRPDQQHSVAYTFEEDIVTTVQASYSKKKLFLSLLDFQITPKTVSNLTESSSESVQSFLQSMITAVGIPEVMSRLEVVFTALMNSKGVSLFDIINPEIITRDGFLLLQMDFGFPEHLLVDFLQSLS
Assay: Inhibition of human recombinant CETP using [3H]-CE/HDL by scintillation proximity assay
Settings: not given

| Structure (SMILES) | IC50 [µM] |
| --- | --- |
| Fc1cc(OC(F)(F)C(F)F)cc([C@@](Cc2ccccc2)(Nc2nc3c(F)cc(F)cc3[nH]2)c2ccc(Cl)cn2)c1 | 0.04 |
| Fc1cc(OC(F)(F)C(F)F)cc([C@@](Cc2ccccc2)(Nc2nc3cc(F)ccc3[nH]2)c2ccc(Cl)cn2)c1 | 0.05 |
| Cc1sc(N[C@](Cc2ccccc2)(c2cc(F)cc(OC(F)(F)C(F)F)c2)c2ccc(Cl)cn2)nc1C(F)(F)F | 0.02 |
| Fc1cc(OC(F)(F)C(F)F)cc([C@@](Cc2ccccc2)(Nc2nc(C(F)(F)F)cs2)c2ccc(Cl)cn2)c1 | 0.22 |

Molecular target: T1, Cholesteryl ester transfer protein
Assay: Inhibition of CETP in human whole plasma using [3H]-CE/HDL after 10 mins
Settings: not given

| Structure (SMILES) | IC50 [µM] |
| --- | --- |
| Fc1cc(OC(F)(F)C(F)F)cc([C@@](Cc2ccccc2)(Nc2nc3c(F)cc(F)cc3[nH]2)c2ccc(Cl)cn2)c1 | 6.4 |
| Fc1cc(OC(F)(F)C(F)F)cc([C@@](Cc2ccccc2)(Nc2nc3cc(F)ccc3[nH]2)c2ccc(Cl)cn2)c1 | 9.5 |
| Cc1sc(N[C@](Cc2ccccc2)(c2cc(F)cc(OC(F)(F)C(F)F)c2)c2ccc(Cl)cn2)nc1C(F)(F)F | 3.2 |
| Fc1cc(OC(F)(F)C(F)F)cc([C@@](Cc2ccccc2)(Nc2nc(C(F)(F)F)cs2)c2ccc(Cl)cn2)c1 | 14.8 |

Molecular target: T2, Cytochrome P450 3A4 (Homo sapiens, UniProt P08684)
T2 sequence (P08684 whole entry): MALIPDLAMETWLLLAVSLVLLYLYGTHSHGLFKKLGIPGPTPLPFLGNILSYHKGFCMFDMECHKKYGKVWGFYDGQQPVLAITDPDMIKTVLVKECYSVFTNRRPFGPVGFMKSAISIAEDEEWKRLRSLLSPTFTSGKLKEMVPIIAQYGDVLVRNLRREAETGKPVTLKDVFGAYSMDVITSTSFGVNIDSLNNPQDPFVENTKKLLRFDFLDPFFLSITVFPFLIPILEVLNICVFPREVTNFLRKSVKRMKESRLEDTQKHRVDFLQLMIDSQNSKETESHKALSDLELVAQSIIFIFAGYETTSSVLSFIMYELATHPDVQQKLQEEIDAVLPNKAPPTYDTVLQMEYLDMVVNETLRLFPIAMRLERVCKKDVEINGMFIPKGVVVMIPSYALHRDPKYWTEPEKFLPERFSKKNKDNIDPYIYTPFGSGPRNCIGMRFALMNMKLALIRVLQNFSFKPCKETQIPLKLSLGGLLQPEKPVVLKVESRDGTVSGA
Assay: Inhibition of CYP3A4 (unknown origin) using 7-benzyloxy-4-trifluoromethylcoumarin as substrate
Format: ADME
Settings: not given

| Structure (SMILES) | IC50 [µM] |
| --- | --- |
| Fc1cc(OC(F)(F)C(F)F)cc([C@@](Cc2ccccc2)(Nc2nc3c(F)cc(F)cc3[nH]2)c2ccc(Cl)cn2)c1 | 24 |
| Fc1cc(OC(F)(F)C(F)F)cc([C@@](Cc2ccccc2)(Nc2nc3cc(F)ccc3[nH]2)c2ccc(Cl)cn2)c1 | 32 |
| Cc1sc(N[C@](Cc2ccccc2)(c2cc(F)cc(OC(F)(F)C(F)F)c2)c2ccc(Cl)cn2)nc1C(F)(F)F | > 40 |
| Fc1cc(OC(F)(F)C(F)F)cc([C@@](Cc2ccccc2)(Nc2nc(C(F)(F)F)cs2)c2ccc(Cl)cn2)c1 | 40 |

Molecular target: T2, Cytochrome P450 3A4
Assay: Inhibition of CYP3A4 (unknown origin) using benzyloxyresorufin as substrate
Format: ADME
Settings: not given

| Structure (SMILES) | IC50 [µM] |
| --- | --- |
| Fc1cc(OC(F)(F)C(F)F)cc([C@@](Cc2ccccc2)(Nc2nc3c(F)cc(F)cc3[nH]2)c2ccc(Cl)cn2)c1 | 19 |
| Fc1cc(OC(F)(F)C(F)F)cc([C@@](Cc2ccccc2)(Nc2nc3cc(F)ccc3[nH]2)c2ccc(Cl)cn2)c1 | 40 |
| Cc1sc(N[C@](Cc2ccccc2)(c2cc(F)cc(OC(F)(F)C(F)F)c2)c2ccc(Cl)cn2)nc1C(F)(F)F | > 40 |
| Fc1cc(OC(F)(F)C(F)F)cc([C@@](Cc2ccccc2)(Nc2nc(C(F)(F)F)cs2)c2ccc(Cl)cn2)c1 | 40 |

Molecular target: Cytochrome P450 2D6 (Homo sapiens, UniProt P10635)
Sequence (P10635 whole entry): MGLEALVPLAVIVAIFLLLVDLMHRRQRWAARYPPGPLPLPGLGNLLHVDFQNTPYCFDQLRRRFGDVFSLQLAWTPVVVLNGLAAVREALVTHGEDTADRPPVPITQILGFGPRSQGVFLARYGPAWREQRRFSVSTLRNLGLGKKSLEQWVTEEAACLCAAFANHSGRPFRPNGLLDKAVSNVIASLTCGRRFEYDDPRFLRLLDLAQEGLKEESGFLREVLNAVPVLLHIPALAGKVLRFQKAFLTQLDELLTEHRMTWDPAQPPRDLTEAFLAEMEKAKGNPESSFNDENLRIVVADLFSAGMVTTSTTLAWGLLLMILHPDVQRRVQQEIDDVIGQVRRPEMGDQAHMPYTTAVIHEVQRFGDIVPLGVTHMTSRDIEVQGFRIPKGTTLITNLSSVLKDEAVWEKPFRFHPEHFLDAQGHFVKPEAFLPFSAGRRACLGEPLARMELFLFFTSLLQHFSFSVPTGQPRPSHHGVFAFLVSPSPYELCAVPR
Assay: Inhibition of CYP2D6 (unknown origin)
Format: ADME
Settings: not given

| Structure (SMILES) | IC50 [µM] |
| --- | --- |
| Fc1cc(OC(F)(F)C(F)F)cc([C@@](Cc2ccccc2)(Nc2nc3c(F)cc(F)cc3[nH]2)c2ccc(Cl)cn2)c1 | 40 |
| Fc1cc(OC(F)(F)C(F)F)cc([C@@](Cc2ccccc2)(Nc2nc3cc(F)ccc3[nH]2)c2ccc(Cl)cn2)c1 | 29 |
| Cc1sc(N[C@](Cc2ccccc2)(c2cc(F)cc(OC(F)(F)C(F)F)c2)c2ccc(Cl)cn2)nc1C(F)(F)F | > 40 |
| Fc1cc(OC(F)(F)C(F)F)cc([C@@](Cc2ccccc2)(Nc2nc(C(F)(F)F)cs2)c2ccc(Cl)cn2)c1 | 40 |

Molecular target: Cytochrome P450 2C19 (Homo sapiens, UniProt P33261)
Sequence (P33261 whole entry): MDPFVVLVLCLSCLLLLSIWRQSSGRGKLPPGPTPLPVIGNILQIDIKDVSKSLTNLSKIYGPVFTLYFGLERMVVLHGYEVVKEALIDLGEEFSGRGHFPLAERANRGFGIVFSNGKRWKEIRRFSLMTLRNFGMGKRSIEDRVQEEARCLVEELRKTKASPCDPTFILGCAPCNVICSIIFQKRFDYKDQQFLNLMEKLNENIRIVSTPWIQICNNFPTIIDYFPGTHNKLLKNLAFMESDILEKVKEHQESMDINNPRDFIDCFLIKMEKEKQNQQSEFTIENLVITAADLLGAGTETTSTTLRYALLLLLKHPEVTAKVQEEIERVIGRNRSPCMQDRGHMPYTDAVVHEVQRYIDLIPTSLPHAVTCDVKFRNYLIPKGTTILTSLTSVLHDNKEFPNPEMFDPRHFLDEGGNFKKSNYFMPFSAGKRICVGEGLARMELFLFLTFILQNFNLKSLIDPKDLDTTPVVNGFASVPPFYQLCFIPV
Assay: Inhibition of CYP2C19 (unknown origin)
Format: ADME
Settings: not given

| Structure (SMILES) | IC50 [µM] |
| --- | --- |
| Fc1cc(OC(F)(F)C(F)F)cc([C@@](Cc2ccccc2)(Nc2nc3c(F)cc(F)cc3[nH]2)c2ccc(Cl)cn2)c1 | 3 |
| Fc1cc(OC(F)(F)C(F)F)cc([C@@](Cc2ccccc2)(Nc2nc3cc(F)ccc3[nH]2)c2ccc(Cl)cn2)c1 | 2 |
| Cc1sc(N[C@](Cc2ccccc2)(c2cc(F)cc(OC(F)(F)C(F)F)c2)c2ccc(Cl)cn2)nc1C(F)(F)F | > 40 |
| Fc1cc(OC(F)(F)C(F)F)cc([C@@](Cc2ccccc2)(Nc2nc(C(F)(F)F)cs2)c2ccc(Cl)cn2)c1 | 13 |

Molecular target: Cytochrome P450 2C9 (Homo sapiens, UniProt P11712)
Sequence (P11712 whole entry): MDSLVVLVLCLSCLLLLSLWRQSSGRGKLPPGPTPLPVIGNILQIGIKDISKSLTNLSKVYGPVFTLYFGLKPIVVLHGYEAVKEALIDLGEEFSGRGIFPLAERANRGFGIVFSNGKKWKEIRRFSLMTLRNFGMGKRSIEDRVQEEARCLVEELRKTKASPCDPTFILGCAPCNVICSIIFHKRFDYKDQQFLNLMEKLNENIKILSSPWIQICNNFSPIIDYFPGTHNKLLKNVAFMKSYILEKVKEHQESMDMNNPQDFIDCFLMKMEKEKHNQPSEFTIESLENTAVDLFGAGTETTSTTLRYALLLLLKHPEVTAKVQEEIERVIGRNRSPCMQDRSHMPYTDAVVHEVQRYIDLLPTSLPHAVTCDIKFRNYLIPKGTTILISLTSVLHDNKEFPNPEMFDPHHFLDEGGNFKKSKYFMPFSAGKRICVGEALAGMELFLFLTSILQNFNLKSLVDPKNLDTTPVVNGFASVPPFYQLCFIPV
Assay: Inhibition of CYP2C9 (unknown origin)
Format: ADME
Settings: not given

| Structure (SMILES) | IC50 [µM] |
| --- | --- |
| Fc1cc(OC(F)(F)C(F)F)cc([C@@](Cc2ccccc2)(Nc2nc3c(F)cc(F)cc3[nH]2)c2ccc(Cl)cn2)c1 | 15 |
| Fc1cc(OC(F)(F)C(F)F)cc([C@@](Cc2ccccc2)(Nc2nc3cc(F)ccc3[nH]2)c2ccc(Cl)cn2)c1 | 40 |
| Cc1sc(N[C@](Cc2ccccc2)(c2cc(F)cc(OC(F)(F)C(F)F)c2)c2ccc(Cl)cn2)nc1C(F)(F)F | > 40 |
| Fc1cc(OC(F)(F)C(F)F)cc([C@@](Cc2ccccc2)(Nc2nc(C(F)(F)F)cs2)c2ccc(Cl)cn2)c1 | 40 |

Molecular target: T3, Cytochrome P450 1A2 (Homo sapiens, UniProt P05177)
T3 sequence (P05177 whole entry): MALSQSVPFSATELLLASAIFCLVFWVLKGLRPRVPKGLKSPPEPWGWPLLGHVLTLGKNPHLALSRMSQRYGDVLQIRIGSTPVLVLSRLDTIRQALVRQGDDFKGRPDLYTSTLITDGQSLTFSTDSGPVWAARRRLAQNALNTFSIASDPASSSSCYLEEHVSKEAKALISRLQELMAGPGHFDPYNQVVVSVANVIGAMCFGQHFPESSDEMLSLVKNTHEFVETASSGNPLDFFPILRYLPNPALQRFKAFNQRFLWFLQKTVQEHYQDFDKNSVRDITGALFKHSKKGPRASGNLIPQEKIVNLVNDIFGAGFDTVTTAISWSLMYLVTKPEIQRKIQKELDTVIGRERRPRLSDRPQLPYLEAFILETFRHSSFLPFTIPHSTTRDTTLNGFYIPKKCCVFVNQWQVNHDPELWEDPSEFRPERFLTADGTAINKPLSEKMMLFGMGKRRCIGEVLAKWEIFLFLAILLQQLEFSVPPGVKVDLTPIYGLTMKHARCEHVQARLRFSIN
Assay: Inhibition of CYP1A2 (unknown origin)
Format: ADME
Settings: not given

| Structure (SMILES) | IC50 [µM] |
| --- | --- |
| Fc1cc(OC(F)(F)C(F)F)cc([C@@](Cc2ccccc2)(Nc2nc3c(F)cc(F)cc3[nH]2)c2ccc(Cl)cn2)c1 | 40 |
| Fc1cc(OC(F)(F)C(F)F)cc([C@@](Cc2ccccc2)(Nc2nc3cc(F)ccc3[nH]2)c2ccc(Cl)cn2)c1 | 40 |
| Cc1sc(N[C@](Cc2ccccc2)(c2cc(F)cc(OC(F)(F)C(F)F)c2)c2ccc(Cl)cn2)nc1C(F)(F)F | > 40 |
| Fc1cc(OC(F)(F)C(F)F)cc([C@@](Cc2ccccc2)(Nc2nc(C(F)(F)F)cs2)c2ccc(Cl)cn2)c1 | 40 |

Molecular target: T4, Nuclear receptor subfamily 1 group I member 2 (Homo sapiens, UniProt O75469)
T4 sequence (O75469 whole entry): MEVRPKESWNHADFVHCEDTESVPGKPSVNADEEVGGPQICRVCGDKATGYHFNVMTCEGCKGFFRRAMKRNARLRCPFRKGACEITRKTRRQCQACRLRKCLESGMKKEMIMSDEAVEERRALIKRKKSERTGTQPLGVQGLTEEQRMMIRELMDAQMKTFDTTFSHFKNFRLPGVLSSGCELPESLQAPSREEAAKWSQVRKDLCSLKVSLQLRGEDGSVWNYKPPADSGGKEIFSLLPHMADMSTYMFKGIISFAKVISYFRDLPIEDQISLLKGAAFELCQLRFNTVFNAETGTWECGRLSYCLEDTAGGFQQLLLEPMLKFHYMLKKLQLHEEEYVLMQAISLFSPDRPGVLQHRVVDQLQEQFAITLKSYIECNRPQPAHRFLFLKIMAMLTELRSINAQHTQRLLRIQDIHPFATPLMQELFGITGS
Assay: Activation of PXR (unknown origin)
Settings: not given

| Structure (SMILES) | EC60 [µM] |
| --- | --- |
| Fc1cc(OC(F)(F)C(F)F)cc([C@@](Cc2ccccc2)(Nc2nc3c(F)cc(F)cc3[nH]2)c2ccc(Cl)cn2)c1 | > 5.6 |
| Fc1cc(OC(F)(F)C(F)F)cc([C@@](Cc2ccccc2)(Nc2nc3cc(F)ccc3[nH]2)c2ccc(Cl)cn2)c1 | > 17 |
| Cc1sc(N[C@](Cc2ccccc2)(c2cc(F)cc(OC(F)(F)C(F)F)c2)c2ccc(Cl)cn2)nc1C(F)(F)F | > 5.6 |
| Fc1cc(OC(F)(F)C(F)F)cc([C@@](Cc2ccccc2)(Nc2nc(C(F)(F)F)cs2)c2ccc(Cl)cn2)c1 | > 17 |

Molecular target: T5, PXR (Homo sapiens, UniProt O75469)
T5 sequence (O75469 whole entry): T4 sequence (O75469 whole entry)
Assay: Activation of PXR (unknown origin) relative to rifampicin
Settings: not given

| Structure (SMILES) | Emax [%] |
| --- | --- |
| Fc1cc(OC(F)(F)C(F)F)cc([C@@](Cc2ccccc2)(Nc2nc3c(F)cc(F)cc3[nH]2)c2ccc(Cl)cn2)c1 | 25 |
| Fc1cc(OC(F)(F)C(F)F)cc([C@@](Cc2ccccc2)(Nc2nc3cc(F)ccc3[nH]2)c2ccc(Cl)cn2)c1 | 56 |
| Cc1sc(N[C@](Cc2ccccc2)(c2cc(F)cc(OC(F)(F)C(F)F)c2)c2ccc(Cl)cn2)nc1C(F)(F)F | 44 |
| Fc1cc(OC(F)(F)C(F)F)cc([C@@](Cc2ccccc2)(Nc2nc(C(F)(F)F)cs2)c2ccc(Cl)cn2)c1 | 45 |
